Assay results reported in US11505835B2, “Method for determining the identity and antimicrobial susceptibility of a microorganism” (Q-linea AB, priority 2014, dated 2022).
≈ marks a conversion by molar mass, not a printed value.

Tests used:
E. coli [1] = settings: determined by another lab; cited from earlier work
E. coli [2] = assay: AST by counting individual bacteria in a flow cytometry type instrument (Aquila 400); MIC from differential growth relative to positive control; type: cell-based
Experimental: The sample was enriched for bacteria and at the same time the culture media was changed, in this case to Mueller-Hinton media (MH-media). E. coli bacteria were recovered via filtration through a 0.2 μm filter and the recovered bacteria were resuspended in MH-media to a concentration of approximately 10^8 CFU/ml in Müller Hinton broth before being diluted to approximately 10^6 CFU/ml in Müller Hinton Broth. Antibiotic solutions were prepared in a series of 2:1 serial dilutions in Müller Hinton broth at 10×test concentrations. The range of antibiotic concentrations was chosen based on identity of the bacteria and the antibiotic. […] A series of eight different concentrations was selected based on known clinical MIC values. Eight sample tubes containing 100 μl antibiotic solution at eight different concentrations and 800 μl Müller Hinton broth were prepared. One additional tube contains 900 μl Müller Hinton broth and no antibiotic as positive control. 100 μl bacterial suspension (10^6 CFU/ml) was added to all nine tubes. A negative control sample comprising 1000 μl Müller Hinton broth (i.e. no bacteria) is prepared as negative control. All tubes were incubated at 35° C. and samples were taken after 0, 4, 6 and 24 hours. Bacterial samples were prepared for counting as in Example 2. Bacterial AST profiles were determined using a flow cytometry based counting of individual bacteria in an Aquila 400 instrument (Q-linea AB, Sweden). Aquila 400 analysis was performed using the alexa 488 laser. […] MIC values for each antibiotic at different time points and cut-off values were calculated based on the differential bacterial growth.

E. coli [3] = assay: MIC with Macrobroth dilution; type: cell-based; settings: reference method; for MIC: Escherichia coli
[4] = Escherichia coli, 4 h, cut-off 15%, 4 hours, Müller Hinton broth, 35° C., read-out: MIC
[5] = Escherichia coli, 4 h, cut-off 20%, 4 hours, Müller Hinton broth, 35° C., read-out: MIC
[6] = Escherichia coli, 6 h, cut-off 5%, 6 hours, Müller Hinton broth, 35° C., read-out: MIC
[7] = Escherichia coli, 6 h, cut-off 10%, 6 hours, Müller Hinton broth, 35° C., read-out: MIC
[8] = Escherichia coli, 6 h, cut-off 15%, 6 hours, Müller Hinton broth, 35° C., read-out: MIC
[9] = Escherichia coli, 6 h, cut-off 20%, 6 hours, Müller Hinton broth, 35° C., read-out: MIC
[10] = Escherichia coli, 24 h, cut-off 15%, 24 hours, Müller Hinton broth, 35° C., read-out: MIC
[11] = Escherichia coli, 24 h, cut-off 20%, 24 hours, Müller Hinton broth, 35° C., read-out: MIC
[12] = Escherichia coli, 24 h, cut-off 5%, 24 hours, Müller Hinton broth, 35° C., read-out: MIC
[13] = Escherichia coli, 24 h, cut-off 10%, 24 hours, Müller Hinton broth, 35° C., read-out: MIC
[14] = Escherichia coli, 4 h, cut-off 5%, 4 hours, Müller Hinton broth, 35° C., read-out: MIC
[15] = Escherichia coli, 4 h, cut-off 10%, 4 hours, Müller Hinton broth, 35° C., read-out: MIC

Compound | MIC with E-test (E. coli [1]) [µg/mL] | MIC (E. coli [2]; [4]) [µg/mL] | MIC (E. coli [2]; [5]) [µg/mL] | MIC (E. coli [2]; [6]) [µg/mL] | MIC (E. coli [2]; [7]) [µg/mL] | MIC (E. coli [2]; [8]) [µg/mL] | MIC (E. coli [2]; [9]) [µg/mL] | MIC (E. coli [2]; [10]) [µg/mL] | MIC (E. coli [2]; [11]) [µg/mL] | MIC (E. coli [3]) [µg/mL] | MIC (E. coli [2]; [12]) [µg/mL] | MIC (E. coli [2]; [13]) [µg/mL] | MIC (E. coli [2]; [14]) [µg/mL] | MIC (E. coli [2]; [15]) [µg/mL] | also measured
CO/N=C(\C(=O)N[C@@H]1C(=O)N2C(C(=O)O)=C(COC(C)=O)CS[C@H]12)c1csc(N)n1 [Cefotaxime] | ≤ 0.5 | 0.06 (≈ 0.132 µM) | 0.06 (≈ 0.132 µM) | 0.06 (≈ 0.132 µM) | 0.06 (≈ 0.132 µM) | 0.03 (≈ 0.0659 µM) | 0.03 (≈ 0.0659 µM) | 0.06 (≈ 0.132 µM) | 0.06 (≈ 0.132 µM) | – | – | – | – | – | –
Gentamicin | 1 | – | – | – | – | – | – | – | – | – | – | – | – | – | MIC with Macrobroth dilution (E. coli [3]): 0.5 to 1 µg/mL; MIC (E. coli [2]; cut-off 5%, 4 hours, Müller Hinton broth, 35° C.): 1 µg/mL; MIC (E. coli [2]; cut-off 5%, 6 hours, Müller Hinton broth, 35° C.): 0.5 µg/mL; MIC (E. coli [2]; cut-off 5%, 24 hours, Müller Hinton broth, 35° C.): 1 µg/mL; MIC (E. coli [2]; cut-off 10%, 4 hours, Müller Hinton broth, 35° C.): 0.5 µg/mL; MIC (E. coli [2]; cut-off 10%, 6 hours, Müller Hinton broth, 35° C.): 0.5 µg/mL; MIC (E. coli [2]; cut-off 10%, 24 hours, Müller Hinton broth, 35° C.): 1 µg/mL; MIC (E. coli [2]; cut-off 15%, 4 hours, Müller Hinton broth, 35° C.): 0.5 µg/mL; MIC (E. coli [2]; cut-off 15%, 6 hours, Müller Hinton broth, 35° C.): 0.5 µg/mL; MIC (E. coli [2]; cut-off 15%, 24 hours, Müller Hinton broth, 35° C.): 1 µg/mL; MIC (E. coli [2]; cut-off 20%, 4 hours, Müller Hinton broth, 35° C.): 0.5 µg/mL; MIC (E. coli [2]; cut-off 20%, 6 hours, Müller Hinton broth, 35° C.): 0.5 µg/mL; MIC (E. coli [2]; cut-off 20%, 24 hours, Müller Hinton broth, 35° C.): 1 µg/mL
C[C@@H](O)[C@H]1C(=O)N2C(C(=O)O)=C(S[C@@H]3CN[C@H](C(=O)N(C)C)C3)[C@H](C)[C@H]12 [Meropenem] | ≤ 0.25 | – | 0.5 (≈ 1.3 µM) | – | – | 0.5 (≈ 1.3 µM) | 0.25 (≈ 0.652 µM) | 0.25 (≈ 0.652 µM) | – | 0.25 to 0.5 (≈ 0.652 to 1.3 µM) | 0.5 (≈ 1.3 µM) | 0.5 (≈ 1.3 µM) | – | – | MIC (E. coli [2]; Escherichia coli, 24 h): 0.125 µg/mL (≈ 0.326 µM)
CC(C)(O/N=C(\C(=O)N[C@@H]1C(=O)N2C(C(=O)[O-])=C(C[n+]3ccccc3)CS[C@H]12)c1csc(N)n1)C(=O)O [Ceftazidime] | ≤ 0.5 | – | – | – | – | – | – | 0.25 (≈ 0.457 µM) | 0.25 (≈ 0.457 µM) | 0.25 (≈ 0.457 µM) | 0.25 (≈ 0.457 µM) | 0.25 (≈ 0.457 µM) | 0.25 (≈ 0.457 µM) | 0.25 (≈ 0.457 µM) | –
O=C(O)c1cn(C2CC2)c2cc(N3CCNCC3)c(F)cc2c1=O [Ciprofloxacin] | ≤ 0.03 | 0.008 (≈ 0.0241 µM) | 0.008 (≈ 0.0241 µM) | 0.008 (≈ 0.0241 µM) | 0.008 (≈ 0.0241 µM) | 0.008 (≈ 0.0241 µM) | 0.004 (≈ 0.0121 µM) | 0.008 (≈ 0.0241 µM) | 0.008 (≈ 0.0241 µM) | 0.016 (≈ 0.0483 µM) | 0.008 (≈ 0.0241 µM) | 0.008 (≈ 0.0241 µM) | 0.016 (≈ 0.0483 µM) | 0.008 (≈ 0.0241 µM) | –
